In patent US20060276527A1, “Combination therapies for the treatment of cancer” (Thresold Pharmaceuticals, Inc., priority 2003, published 2006):
Like-named read-outs stand apart in the source and are kept apart here.

Columns and labels:
[1] = test system: advanced breast cancer; settings: daily divided oral dose of 600 mg, cited from earlier work
[2] = test system: metastatic breast cancer; settings: addition of LND to epirubicin, factorial design; cited from earlier work
[3] = test system: HIF-1alpha; settings: PC3 cells, normoxic and hypoxic conditions, 4 hours; inhibition dose-dependent
Experimental: Methods: Cells were plated at a density of 5×10^5 cells into a dish, and then maintained in 37° C. incubator (5% CO2) for 2 days. Prior to the assay, cells were rinsed twice with pre-warmed (37° C.) RPMI-1640 Medium (ATCC No. 30-2001; 10 mM HEPES; 1 mM sodium pyruvate; 2 mM L-glutamine; 4500 mg glucose/L; 1500 mg sodium bicarbonate/L). […] At the end of the incubation, the dish was placed on ice, and the cells were washed rapidly twice with cold PBS buffer (4° C.). For nuclear extracts, cells were lysed with buffer A (10 mM Tris, pH7.5; 1.5 mM MgCl2; 10 mM KCl and protease inhibitors and buffer C (0.5 M NaCl; 20 mM Tris pH7.5; 1.5 mM MgCl2; 20% glycerol and protease inhibitors), sequentially. The protease inhibitors used in the experiments were a cocktail of five protease inhibitors (500 mM AEBSF-HCl, 1 mg/ml Aprotinin, 1 mM E-64, 500 mM EDTA and 1 mM Leupeptin; Calbiochem NO 539131). For whole cell lysate, cells were lysed with 150 mM NaCl; 10 mM Tris ph7.5; 10 mM EDTA; 1% Triton X-100; 0.5% Deoxycholate, and protease inhibitors. The protein concentration was measured using a Bio-Rad protein assay. Equal amounts of protein were loaded on a SDS-PAGE gel. […] The specific protein was detected using a colorimetric substrate, and the intensity of each protein was quantified using an NIH image system.

[4] = test system: HIF-1alpha
Experimental: LNCaP is a citrate-producing cell (ATTC No. CRL-1740) while PC3 is citrate oxidizing cell (ATTC No. CRL-1435).
Methods: Cells were plated at a density of 5×10^5 cells into a dish, and then maintained in 37° C. incubator (5% CO2) for 2 days. Prior to the assay, cells were rinsed twice with pre-warmed (37° C.) RPMI-1640 Medium (ATCC No. 30-2001; 10 mM HEPES; 1 mM sodium pyruvate; 2 mM L-glutamine; 4500 mg glucose/L; 1500 mg sodium bicarbonate/L). Cells were incubated with 2 mL culture medium in the absence or presence of lonidamine at different concentrations for 4 hours at 37° C. either under normoxia or hypoxia (oxygen level<0.1%). […] For nuclear extracts, cells were lysed with buffer A (10 mM Tris, pH7.5; 1.5 mM MgCl2; 10 mM KCl and protease inhibitors and buffer C (0.5 M NaCl; 20 mM Tris pH7.5; 1.5 mM MgCl2; 20% glycerol and protease inhibitors), sequentially. The protease inhibitors used in the experiments were a cocktail of five protease inhibitors (500 mM AEBSF-HCl, 1 mg/ml Aprotinin, 1 mM E-64, 500 mM EDTA and 1 mM Leupeptin; Calbiochem NO 539131). For whole cell lysate, cells were lysed with 150 mM NaCl; 10 mM Tris ph7.5; 10 mM EDTA; 1% Triton X-100; 0.5% Deoxycholate, and protease inhibitors. The protein concentration was measured using a Bio-Rad protein assay. […]

[5] = test system: actin, caspase 3, NF-kappabeta, Ikappabetaalpha; settings: except at 800 microM concentration
Experimental: Methods: Cells were plated at a density of 5×10^5 cells into a dish, and then maintained in 37° C. incubator (5% CO2) for 2 days. Prior to the assay, cells were rinsed twice with pre-warmed (37° C.) RPMI-1640 Medium (ATCC No. 30-2001; 10 mM HEPES; 1 mM sodium pyruvate; 2 mM L-glutamine; 4500 mg glucose/L; 1500 mg sodium bicarbonate/L). Cells were incubated with 2 mL culture medium in the absence or presence of lonidamine at different concentrations for 4 hours at 37° C. either under normoxia or hypoxia (oxygen level<0.1%). At the end of the incubation, the dish was placed on ice, and the cells were washed rapidly twice with cold PBS buffer (4° C.). For nuclear extracts, cells were lysed with buffer A (10 mM Tris, pH7.5; 1.5 mM MgCl2; 10 mM KCl and protease inhibitors and buffer C (0.5 M NaCl; 20 mM Tris pH7.5; 1.5 mM MgCl2; 20% glycerol and protease inhibitors), sequentially. The protease inhibitors used in the experiments were a cocktail of five protease inhibitors (500 mM AEBSF-HCl, 1 mg/ml Aprotinin, 1 mM E-64, 500 mM EDTA and 1 mM Leupeptin; Calbiochem NO 539131). For whole cell lysate, cells were lysed with 150 mM NaCl; 10 mM Tris ph7.5; 10 mM EDTA; 1% Triton X-100; 0.5% Deoxycholate, and protease inhibitors. The protein concentration was measured using a Bio-Rad protein assay. Equal amounts of protein were loaded on a SDS-PAGE gel. […]

In the case of O=C(O)c1nn(Cc2ccc(Cl)cc2Cl)c2ccccc12 [lonidamine, 1-(2,4-dichlorobenzyl)-1H-indazole-3-carboxylic acid], the minor response ([1]; 28 patients evaluable) is given as 11%, the “partial response (4-24+ months)” value ([1]; 28 patients evaluable) is given as 11% and the progressed ([1]; of 28 patients evaluable) is given as 20 patients. The “stable disease (greater than 3 months)” value ([1]; of 28 patients evaluable) was “two”, the “time to progression in metastatic breast cancer patients treated with epirubicin” value [2] was “not improved” and the “level of HIF-1alpha protein detected in nuclear (NE) and whole-cell extract (WCE) preparations” value [3] was “reduced the level of HIF-1alpha protein”. For the same compound, the “sensitivity of citrate-producing cells (LNCaP) to lonidamine treatment compared to citrate-oxidizing cells (PC3)” value ([4]; HIF-1alpha accumulation, LNCaP versus PC3) was “greater sensitivity”, the “level of HIF-1alpha protein detected in nuclear (NE) and whole-cell extract (WCE) preparations” value ([4]; LNCaP cells, hypoxic conditions (oxygen <0.1%), 4 hours, inhibition dose-dependent) was “reduced the level of HIF-1alpha protein” and the “inhibition of protein levels of actin, caspase 3, NF-kappabeta, or Ikappabetaalpha” value [5] was “no detectable inhibition”.
